Data on 1 compound can be found in patent US20060270727A1, “Small molecule therapeutics and uses therefor” (priority 2005, published 2006).

The test system of assay [1] is duplex DNA having GAA repeats ((GAA)33). The assay can be described thus: Quantitative DNase I footprinting on extended GAA repeat DNA. The assay is classed as binding. The text has this:
The term “mismatch” in the context of polyamides or linkable units refers to replacement of one or more linkable units in a polyamide such that recognition for a specific duplex DNA pair is energetically less favorable (Dervan & Edelson, Id.; Urbach & Dervan, Id). The term “match” in the context of polyamide binding to DNA refers to a linkable unit selected according to the polyamide recognition rules of Urbach & Dervan (Id). or Dervan & Edelson (Id).
where the second oligonucleotide was labeled with γ-^32P ATP and polynucleotide kinase, using standard procedures, to generate a PCR product labeled on the GAA strand. A 204 bp singly end-labeled PCR product was derived from plasmid pMP142 DNA, containing 33 GAA repeats (Ohshima et al., Id.), with following oligonucleotides: […]

Assay [2] relates to mismatch DNA sequence 5′-GGAGGAGGTGGAGGAGGA-3′ from the erbB2 (Her2-neu) promoter. Description: DNase I footprinting on mismatch DNA. Particulars: polyamide concentrations up to 100 nM. The assay is classed as binding, human. As to the method:
Two additional molecules, FA5 [(ImPyβ)4ImβDp] and FA6 [(ImPyβ)5ImβDp], were synthesized in order to target longer regions of GAA repeats in duplex DNA; i.e., (AAG)5 (SEQ ID NO: ______) and (AAG)6 (SEQ ID NO: ______) respectively. […] As another test for sequence specificity, footprinting experiments with FA1 and FA3 and a radiolabeled DNA fragment containing a mismatch DNA sequence 5′-GGAGGAGGTGGAGGAGGA-3′ (SEQ ID NO: ______) were performed.
The first oligonucleotide shown was radiolabeled as above to generate a PCR product labeled on the GAA strand. A 150 bp PCR product containing a (GGA•TCC)6 mismatch sequence was derived from the erbB2 (Her2-neu) promoter in human genomic DNA with the following oligonucleotides: […]

In assay [3] the test system is frataxin protein in GM15850 FRDA cells. Description: Western blot of frataxin protein. The conditions noted are these: 1-2 μM for 7 days, SDS-PAGE and western blot. The assay is classed as cell-based, human. As to the method: Since the primary transcripts from FRDA frataxin genes contain long stretches of GAA repeat RNA sequence, it is conceivable that this RNA will not be correctly processed into mature frataxin mRNA and frataxin protein will not be produced. To test whether polyamide FA 1 leads to increased levels of frataxin protein in treated lymphoid cells, total cell extracts from polyamide-treated (1-2 μM for 7 days) and untreated GM15851 control and GM15850 FRDA cells were subjected to SDS-PAGE, and the corresponding blots were probed with anti-frataxin or anti-actin antibodies. SDS-PAGE (i.e., sodium dodecylsulfate-polyacrylamide gel electrophoresis) was conducted by standard methods well known in the art.
Western Blot Analysis. Total cell extracts were used for SDS-PAGE and western blotting with antibodies to human frataxin (Chemicon) or actin (Santa Cruz Biotechnology) as a control for cell number and protein loading. Signals were detected by chemiluminescence after probing the blot with HRP-conjugated secondary antibody (Supersignal West, Pierce). To quantify the relative levels of proteins, autoradiograms (within the linear response range of X-ray film) were converted into digital images and the signals quantified using Molecular Dynamics ImageQuant software.
In general terms: Immunoblotting shows a protein as a band on a membrane.

On to `CN(C)CCCNC(=O)CCNC(=O)c1nc(NC(=O)CCNC(=O)c2cc(NC(=O)c3nc(NC(=O)CCNC(=O)c4cc(NC(=O)c5nccn5C)cn4C)cn3C)cn2C)cn1C` [FA1, ImPyβImPyβImβDp], for which, in assay [1] (equals target site concentration in the reaction), the “concentration at 50% occupancy of the DNA” value is roughly 1.5 nM. For the same compound, in assay [1] (several molecules bound per DNA molecule), the “affinity for extended GAA repeats” value is listed as “no loss in affinity”. Also, the “binding to mismatch DNA sequence” value in assay [2] is listed as “Neither FA1 nor FA3 bound this DNA sequence”. Also, in assay [3], the “increase in frataxin protein” value is 2-3 fold.
